Assay results: patent publication US8101740B2, “Positron emission tomography probes for imaging immune activation and selected cancers” (The Regents of the University of California, priority 2007, dated 2012)

Legend:
[1] = microPET/CT in Fas^1pr systemic autoimmunity model; type: in vivo, B6-MRL-Fas^1pr/J mice
[2] = tested on: Bcr-Abl-expressing Ba/F3 cells and Bcr-Abl transformed bone marrow; assay: microPET/CT of Bcr-Abl oncogene-induced leukemia models; type: in vivo, mouse; details: 1 hr after probe injection
Description: (§1) In addition to immune diseases, [^18F]D-FAC may also be used to measure dysregulated nucleoside metabolism in cancer. To this end, we examined the utility of [^18F]D-FAC microPET in animal models representative of leukemia or lymphoma, melanoma, and glioma tumors (FIG. 12, where the images are 1 mm coronal sections from [^18F]D-FAC microPET/CT scans 1 hr after probe injection). In FIG. 12A, SCID mice were injected intravenously with Ba/F3 cells expressing p210 BCR-ABL and go on to develop aggressive disease with massive splenic infiltration that typically results in death within ˜15 days (mice shown were imaged on day 12). In FIG. 12B, the NOD SCID mice were transplanted with wild type total bone marrow cells infected with MSCV-GFP-IRES-P185 BCR-ABL retroviral stocks and the leukemic mice were imaged 28 days following transplantation. In FIG. 12C, C57BL/6 was injected subcutaneously with 1×10^5 B16 melanoma cells and imaged 7 days later. […] [^18F]D-FAC PET also detected implanted murine B16 cells (representative of malignant melanoma) and human U87 cells (representative of glioma tumors). […]
Six to 8 week old mice with severe combined immunodeficiency (NOD SCID) were sublethally irradiated (275 rads) one day prior to reconstitution. […] Animals were monitored daily for signs of illness during a period of two months as previously described^10. […]

human U87 cells = assay: microPET/CT of implanted U87 glioma; type: in vivo, SCID mice; details: imaged 10 days after 1×10^6 cells subcutaneously
Description: as §1, with “later. In FIG. 12D, SCID mice were injected subcutaneously with 1×10^6 U87 glioma cells and imaged 10 days later.” for “later.”

lymphoma lesion = assay: PET scan of human subject with lymphoma lesion; type: in vivo; details: coronal PET image
Text: FIG. 29 presents PET scan images of a human subject after injection of [^18F]D-FAC. […] The heterogeneous spleen 292 is visible.

MoMSV-induced sarcomas = assay: microPET/CT in oncoretrovirus (MoMSV) sarcoma model of anti-tumor immunity
Description: All the mice used in these studies were bred and maintained according to the guidelines of the Department of Laboratory Animal Medicine (DLAM) at the University of California, Los Angeles. For the oncoretrovirus-induced sarcoma model, C57/BL6 mice were challenged intramuscularly in the right triceps with the Moloney murine sarcoma and leukemia virus complex (MoMSV) in a volume of 100 uL of PBS as described previously^6. B6-MRL-Fas^1pr/J mice used for systemic autoimmunity studies were purchased from the Jackson Laboratory (stock number 000482). To monitor the immunosuppressive treatment, these mice were given intraperitoneal injections of dexamethasone (DEX, 10 mg/kg) at 24 hr intervals and were scanned by microPET/CT 24 hr after the last injection. Animals were anesthetized with 2% isoflurane, injected intravenously with 200 microCi [^18F]D-FAC and then scanned with microPET/CT; mice were sacrificed immediately after imaging. Organs were rapidly excised, weighed, and the radioactivity was measured in a well counter. After decay correction, results were expressed as percent of the injected dose of activity per gram of tissue (% ID/g). Other mice were anesthetized with 2% isoflurane and injected intravenously with 1 mCi [^18F]D-FAC. After 1 hr, mice were euthanized, embedded in 3% carboxymethyl cellulose (CMC, Sigma), and frozen in 100% ethanol with dry ice for 45 min. The 50 micron sections were cut using a whole body cryostat, (PMV, Stockholm, Sweden); samples were exposed overnight on BAS-TR2025 plates (Fujifilm Life Science, Stamford, Conn.). Imaging plates were read using a Fujibas-5000 phosphorimager (16 bit, 25 micron resolution; Fujifilm Life Science).
In this model, antigen-specific T cells primed by immunodominant epitopes encoded by viral gag and env genes rapidly expand in spleen and tumor draining lymph nodes (DLNs) and then traffic to the tumor lesion which is rejected over a period of 2-5 weeks^17,18. In fact, the kinetics of T cell responses against MoMSV-induced sarcomas have been studied extensively using conventional ex vivo approaches and our group has used PET reporter gene imaging to visualize tumor rejection in this model^17. To analyze whether the [^18F]D-FAC microPET/CT imaging can detect sites of localized immune activation, mice were scanned before and after the virus challenge.
To determine whether [^18F]D-FAC can provide unique information regarding localized immune activation via the afore-mentioned model, the mice imaged by [^18F]D-FAC were also scanned on consecutive days using [^18F]FDG and [^18F]FLT.

Nc1ccn([C@@H]2O[C@H](CO)[C@@H](O)[C@@H]2[18F])c(=O)n1 [[^18F]D-FAC, 1-(2′-deoxy-2′-[^18F]fluoro-β-D-arabinofuranosyl)cytosine]
mice with enlarged LNs on microPET scans ([1]; Fas^1pr/J mice): 9 out of 13 | mice with probe-positive LNs ([1]; wild type mice): 2 out of 19 | retention in the spleen [2]: increased | detection of implanted tumor cells by PET (human U87 cells): detected | concentration in lymph node (lymphoma lesion): high concentration | route of clearance (dynamic microPET/CT time-activity curves): predominantly cleared through the kidney | retention in the brain and the myocardium (mouse, in vivo): low retention | organs with accumulated radioactivity (one hour after intravenous injection): thymus, spleen, intestine, bone/bone marrow and, to a lesser extent, in the liver | Spleen, % ID/g per organ normalized to % ID/g muscle (spleen, 60 min after intravenous injection, 3 mice): 2.16 +/− 0.48 % ID/g per organ normalized to % ID/g muscle | Thymus, % ID/g per organ normalized to % ID/g muscle (thymus, 60 min after intravenous injection, 3 mice): 3.29 +/− 0.48 % ID/g per organ normalized to % ID/g muscle | accumulation in the spleen and tumor DLNs relative to baseline scans (MoMSV-induced sarcomas; day 15, peak of anti-tumor immune response): significantly increased | accumulation in the tumor (MoMSV-induced sarcomas; tumor): 6.7±0.3 % ID/g | accumulation in the tumor DLNs (MoMSV-induced sarcomas; tumor draining lymph nodes): 13±2.7 % ID/g | accumulation in tumor over background (contralateral muscle tissue) (MoMSV-induced sarcomas; tumor lesions): 1.9±0.3 % ID/g tumor over background
